GI50 and TGI data for nine compounds are collected here from PubChem BioAssay (NCI).

Test systems include RXF 393 renal; A498 renal; MCF7 breast; HS 578T breast; NCI-H23 lung; SF-268 CNS; SNB-19 CNS; HOP-92 NSCLC; BT-549 breast; RPMI-8226 leukemia.
What all share (test): NCI anticancer screen, dose series, 48 h

The structures appear in SMILES notation. Values joined by “and” are separate entries in the source; they are usually repeats but may differ in a detail not shown here. Equal entries are not always repeated.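 96-well plates; 48 h exposure; 5 concentrations. Endpoints by linear interpolation between flanking doses. Not reached: highest tested concentration assigned. GI50 = concentration required for 50% inhibition of growth. Definition used: TGI = concentration required for complete inhibition of growth.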 A value given as a limit tells only on which side of the number the result lay.

On to `CCC/C(=N\NC(=S)N1CC2CCC(CC2)C1)c1ccccn1`, for which the GI50 with RXF 393 renal is 0.0356 µM; in the test with A498 renal, 0.263 µM; with NCI-H23 lung, 0.0141 µM; in the test with SF-268 CNS, 0.332 µM; in the test with SNB-19 CNS, 0.338 µM; with HOP-92 NSCLC, 0.0362 µM. The TGI in the test with RXF 393 renal is 1.34 µM and 0.518 µM; with A498 renal, 2.06 µM and 1.61 µM; in the test with MCF7 breast, 1.44 µM; in the test on HS 578T breast, 4.43 µM; in the test with NCI-H23 lung it was 2.77 µM and 0.674 µM; in the test with SF-268 CNS, 8.33 µM and 2.6 µM. In addition, the TGI with SNB-19 CNS is 2.04 µM and 1.92 µM; in the test on HOP-92 NSCLC, 0.879 µM and 1.34 µM; in the test on BT-549 breast it was 1.96 µM.

For the compound `CC(C)(C)c1cc(-n2c(-c3ccc(Cl)cc3)nc3cc(C(=O)Nc4ccc(Cl)cc4)ccc32)n[nH]1`, the GI50 with RXF 393 renal is 8.57 µM; in the test with A498 renal, 1.99 µM; with MCF7 breast it was 3.93 µM; in the test on HS 578T breast, 7.91 µM; with NCI-H23 lung, 4.86 µM; with SF-268 CNS it was 9.03 µM. Besides, the results for the GI50 in the test with SNB-19 CNS, with HOP-92 NSCLC and in the test on BT-549 breast were 4.1 µM, 1.65 µM and 5.75 µM, respectively. Besides, the TGI is 63.6 µM in the test with RXF 393 renal; greater than 100 µM with A498 renal; greater than 100 µM in the test with MCF7 breast; 93 µM in the test on HS 578T breast; greater than 100 µM in the test on NCI-H23 lung; greater than 100 µM in the test with SF-268 CNS. Further, the TGI was greater than 100 µM in the test with SNB-19 CNS, 6.51 µM with HOP-92 NSCLC and greater than 100 µM in the test on BT-549 breast.

As for `S=C(Nc1ccc(-c2nc3ccccc3[nH]2)cc1)Nc1ccc(-c2nc3ccccc3[nH]2)cc1`, the GI50 is greater than 100 µM with RXF 393 renal; 28.8 µM in the test with MCF7 breast; greater than 100 µM with HS 578T breast; 70.3 µM with NCI-H23 lung; greater than 100 µM in the test with SF-268 CNS; greater than 100 µM in the test on SNB-19 CNS. For the same compound, the figures for the GI50 in the test on HOP-92 NSCLC, in the test with RPMI-8226 leukemia and with BT-549 breast were greater than 100 µM, 71.8 µM and greater than 100 µM, respectively. Also, the TGI in the test with RXF 393 renal, in the test with MCF7 breast, in the test with HS 578T breast, in the test on NCI-H23 lung, in the test with SF-268 CNS and with SNB-19 CNS was greater than 100 µM throughout. Besides, the TGI in the test on HOP-92 NSCLC, in the test with RPMI-8226 leukemia and with BT-549 breast was greater than 100 µM in each case.

As for `O=C(Nc1ccc(Cl)c(Cl)c1)Nc1c(Oc2ccc(Cl)c(Cl)c2)ccc(Cl)c1S(=O)(=O)O`, the GI50 in the test with RXF 393 renal is 1.92 µM; in the test on A498 renal, 1.53 µM; in the test on MCF7 breast, 0.388 µM; in the test on HS 578T breast, 2.21 µM; in the test with NCI-H23 lung, 2.52 µM; in the test with SF-268 CNS it was 3.82 µM. In addition, the GI50 with SNB-19 CNS was 3.42 µM; with RPMI-8226 leukemia, 2.91 µM; in the test with BT-549 breast it was 1.71 µM. Also, the TGI in the test with RXF 393 renal is 5.64 µM; in the test on A498 renal, 6.26 µM; in the test on MCF7 breast, greater than 100 µM; with HS 578T breast, 8.79 µM; in the test with NCI-H23 lung, greater than 100 µM; with SF-268 CNS it was greater than 100 µM. For the same compound, the TGI in the test on SNB-19 CNS, with RPMI-8226 leukemia and in the test on BT-549 breast was greater than 100 µM throughout.

Consider `COCc1cc(C(=O)Nc2cc([C@H]3CC[C@@H](OC(=O)NC(C)C)C3)[nH]n2)n(C)n1`, for which the GI50 was 2.93 µM in the test on RXF 393 renal; 11.4 µM in the test with A498 renal; 2.53 µM with MCF7 breast; 11.7 µM in the test on HS 578T breast; 12.1 µM with SF-268 CNS; 12.7 µM with SNB-19 CNS. In addition, the GI50 with HOP-92 NSCLC is 8.03 µM; with RPMI-8226 leukemia it was 14.2 µM; in the test on BT-549 breast, 9.27 µM. For the same compound, the TGI in the test on RXF 393 renal was 9.11 µM; with A498 renal it was 34.5 µM; in the test with MCF7 breast, greater than 100 µM; with HS 578T breast, 85.3 µM; in the test on SF-268 CNS, 50.5 µM; in the test with SNB-19 CNS, greater than 100 µM. In addition, the TGI in the test on HOP-92 NSCLC was determined as 36.6 µM; in the test with RPMI-8226 leukemia, 47 µM; in the test on BT-549 breast, 41.1 µM.

Take `NCCOCCOCCNc1nc(-c2ccccc2)nc(N2CCN(c3ccccn3)CC2)n1`: the GI50 in the test on RXF 393 renal was 10.1 µM; in the test with A498 renal it was 3.91 µM; in the test with MCF7 breast, 12.5 µM; with HS 578T breast, 15.4 µM; with NCI-H23 lung, 16.6 µM; with SF-268 CNS, 15.9 µM. Besides, the values for the GI50 in the test on HOP-92 NSCLC, in the test on RPMI-8226 leukemia and with BT-549 breast were 1.84 µM, 13.5 µM and 11.6 µM, respectively. Moreover, the TGI worked out at 22.8 µM in the test with RXF 393 renal; 18.4 µM in the test with A498 renal; 32.2 µM with MCF7 breast; 41 µM in the test with HS 578T breast; 31.3 µM in the test with NCI-H23 lung; 30.8 µM in the test on SF-268 CNS. For the same compound, the TGI in the test with HOP-92 NSCLC was found to be 11.1 µM; in the test with RPMI-8226 leukemia, 34.2 µM; in the test with BT-549 breast, 24 µM.

As to `CCN(CC)c1ccc(C(O)C2=CC(=O)c3ccccc3C2=O)cc1` (stereo unspecified), the GI50 was 2.36 µM in the test with A498 renal; 1.58 µM with MCF7 breast; 1.32 µM in the test on HS 578T breast; 1.33 µM in the test on NCI-H23 lung; greater than 100 µM with SF-268 CNS; 0.21 µM in the test on HOP-92 NSCLC. Also, the GI50 in the test on BT-549 breast was 3.07 µM. Moreover, the TGI with A498 renal was 8.35 µM; with MCF7 breast, 6.31 µM; in the test on HS 578T breast, 5.53 µM; with NCI-H23 lung, 3.02 µM; in the test with SF-268 CNS it was greater than 100 µM; in the test with HOP-92 NSCLC, 0.942 µM. The TGI in the test with BT-549 breast worked out at 8.22 µM.

As to `O=c1[nH]c(=S)[nH]c2c1CN(CCCN1CCOCC1)CN2`, the TGI in the test on A498 renal is greater than 100 µM; in the test on MCF7 breast, greater than 100 µM; in the test with HS 578T breast, greater than 100 µM; in the test on NCI-H23 lung, 54.4 µM; in the test with SF-268 CNS, 59.1 µM; in the test with SNB-19 CNS, greater than 100 µM. The TGI with HOP-92 NSCLC is greater than 100 µM; in the test on RPMI-8226 leukemia it was 75.6 µM; with BT-549 breast, greater than 100 µM.

As for `N=c1ccn(O)cc1/C=C1/C(=O)Nc2ccccc21`, the GI50 with A498 renal, in the test on MCF7 breast, with HS 578T breast, in the test with NCI-H23 lung, in the test on SF-268 CNS and in the test on SNB-19 CNS was greater than 100 µM throughout. Also, the GI50 in the test with HOP-92 NSCLC, with RPMI-8226 leukemia and in the test with BT-549 breast was greater than 100 µM each time. The TGI in the test with A498 renal, in the test with MCF7 breast, in the test with HS 578T breast, in the test with NCI-H23 lung, in the test with SF-268 CNS and in the test with SNB-19 CNS was greater than 100 µM in each case. The TGI with HOP-92 NSCLC, in the test with RPMI-8226 leukemia and in the test with BT-549 breast was greater than 100 µM throughout.
